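Interpolation was linear, between the two tested concentrations surrounding the appropriate level; five concentrations were tested over 48 hours in 96-well plates. GI50 is the concentration that inhibits growth by half.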 Activity calls are given as the source filed them. Rule as the data show it: active = GI50 up to about 1.1 µM and inactive = higher.
What was measured:
Experiment in all cases: NCI tumour cell line growth inhibition, 48 h
[1] = system: ACHN
[2] = system: NCI/ADR-RES
[3] = system: MDA-MB-435
[4] = system: SK-OV-3
[5] = system: SW-620
[6] = system: M14
[7] = system: RXF 393
[8] = system: CCRF-CEM
[9] = system: HT-29
[10] = system: HCT-15
[11] = system: EKVX
[12] = system: NCI-H23
[13] = system: IGROV-1
[14] = system: SF-268
[15] = system: LOX IMVI
[16] = system: NCI-H522
[17] = system: A498
[18] = system: RPMI-8226
[19] = system: OVCAR-8
[20] = system: HOP-92

Compound	GI50 [1]	GI50 [2]	GI50 [3]	GI50 [4]	GI50 [5]	GI50 [6]	GI50 [7]	GI50 [8]	GI50 [9]	GI50 [10] [µM]	GI50 [11]	GI50 [12]	GI50 [13]	GI50 [14]	GI50 [15]	GI50 [16]	GI50 [17]	GI50 [18]	GI50 [19]	GI50 [20]
CN1N=C(c2ccncc2)OC1c1cccc(F)c1 (stereo unspecified)	> 100 µM (inactive)	> 100 µM (inactive)	> 100 µM (inactive)	> 100 µM (inactive)	> 100 µM (inactive)	> 100 µM (inactive)	> 100 µM (inactive)	> 100 µM (inactive)	> 100 µM (inactive)	> 100	> 100 µM (inactive)	> 100 µM (inactive)	> 100 µM (inactive)	> 100 µM (inactive)	> 100 µM (inactive)	> 100 µM (inactive)	> 100 µM (inactive)	> 100 µM (inactive)	> 100 µM (inactive)	–
c1ccc2c(c1)ncn2CCn1ccnc1	> 100 µM (inactive)	> 100 µM (inactive)	> 100 µM (inactive)	> 100 µM (inactive)	> 100 µM (inactive)	> 100 µM (inactive)	> 100 µM (inactive)	> 100 µM (inactive)	> 100 µM (inactive)	> 100	> 100 µM (inactive)	> 100 µM (inactive)	> 100 µM (inactive)	> 100 µM (inactive)	> 100 µM (inactive)	> 100 µM (inactive)	> 100 µM (inactive)	> 100 µM (inactive)	> 100 µM (inactive)	–
CC1(C)[C@@H](Cn2nnc3c(N)ncnc32)CC[C@@]1(C)CO	> 100 µM (inactive)	> 100 µM (inactive)	> 100 µM (inactive)	> 100 µM (inactive)	> 100 µM (inactive)	> 100 µM (inactive)	> 100 µM (inactive)	> 100 µM (inactive)	–	> 100	> 100 µM (inactive)	–	–	> 100 µM (inactive)	> 100 µM (inactive)	–	> 100 µM (inactive)	> 100 µM (inactive)	–	> 100 µM (inactive)
C=C1CC(C)(c2ccc(Nc3nc4ccccc4c4occc34)cc2)OC1=O (stereo unspecified)	4.26 µM (inactive)	4.44 µM (inactive)	1.91 µM (inactive)	10.8 µM (inactive)	–	2 µM (inactive)	2.08 µM (inactive)	1.12 µM (active)	3.61 µM (inactive)	1.94	12.1 µM (inactive)	1.22 µM (inactive)	–	2.93 µM (inactive)	1.95 µM (inactive)	–	18.9 µM (inactive)	1.69 µM (inactive)	2.66 µM (inactive)	1.95 µM (inactive)
COP(=O)(O)C(N)Cc1c[nH]c2ccccc12 (stereo unspecified)	> 100 µM (inactive)	> 100 µM (inactive)	> 100 µM (inactive)	> 100 µM (inactive)	> 100 µM (inactive)	> 100 µM (inactive)	–	> 100 µM (inactive)	> 100 µM (inactive)	> 100	–	> 100 µM (inactive)	> 100 µM (inactive)	–	> 100 µM (inactive)	> 100 µM (inactive)	> 100 µM (inactive)	> 100 µM (inactive)	> 100 µM (inactive)	> 100 µM (inactive)
CC(=O)C1(c2ccccc2)CCCN(C)CC1 (stereo unspecified)	–	> 100 µM (inactive)	> 100 µM (inactive)	> 100 µM (inactive)	> 100 µM (inactive)	> 100 µM (inactive)	–	> 100 µM (inactive)	> 100 µM (inactive)	> 100	–	> 100 µM (inactive)	> 100 µM (inactive)	–	> 100 µM (inactive)	–	> 100 µM (inactive)	> 100 µM (inactive)	> 100 µM (inactive)	> 100 µM (inactive)
NCCN1C(=O)c2ccccc2C1c1ccc(Cl)cc1 (stereo unspecified)	> 100 µM (inactive)	> 100 µM (inactive)	> 100 µM (inactive)	> 100 µM (inactive)	> 100 µM (inactive)	> 100 µM (inactive)	> 100 µM (inactive)	> 100 µM (inactive)	> 100 µM (inactive)	> 100	> 100 µM (inactive)	> 100 µM (inactive)	> 100 µM (inactive)	> 100 µM (inactive)	> 100 µM (inactive)	–	> 100 µM (inactive)	> 100 µM (inactive)	> 100 µM (inactive)	> 100 µM (inactive)

Source: ChEMBL document CHEMBL1201862, “PubChem BioAssay data set” (2004)
